{"source": "patent EP0488424B1", "about": "“Recombinant DNA sequences encoding feedback inhibition released enzymes, plasmids comprising the recombinant DNA sequences, transformed microorganisms useful in the production of aromatic amino acids, and a process for preparing aromatic amino acids by fermentation” (priority 1990, dated 1992)", "type_in_all_cases": "biochemical", "key": {"[1]": {"molecular_target": "T1, Escherichia coli 3-deoxy-D-arabinoheptulonic acid-7-phosphate synthase (DS) encoded by aroG, wild type (pTS-aroG) (Escherichia coli, UniProt P0AB91)", "T1 construct": "cloning the natural DS gene of Escherichia coli; made in house; host or cells: Escherichia coli AB3257 (no DS activity), crude enzyme solution", "experiment": "DS enzyme activity in the presence of L-phenylalanine (crude enzyme solution)", "conditions": "crude enzyme of AB3257/pTS-aroG; concentration not stated in text (Fig. 3)", "excerpt": "(§1) The above plasmids, bearing either mutant aroF (pTS-aroF15 and pTS-aroF33) or mutant aroG (pTS-aroG4, pTS-aroG8, pTS-aroG15, pTS-aroG17, pTS-aroG29 and pTS-aroG40), were used to transform Escherichia coli AB3257 strain having no DS activity. The respective transformants were named AJ 12598 (AB3257/pTS-aroF15), AJ 12599 (AB3257/pTS-aroF33), AJ 12562 (AB3257/pTS-aroG4), AJ 12600 (AB3257/pTS-aroG8), AJ 12563 (AB3257/pTS-aroG15), AJ 12601 (AB3257/pTS-aroG17), AJ 12602 (AB3257/pTS-aroG29) and AJ 12603 (AB3257/pTS-aroG40), respectively. Among them, AJ 12563 and AJ 12603 were deposited as representative strains in the Fermentation Research Institute of the Agency of Industrial Science & Technology of Japan, under the deposit numbers Escherichia coli FERM BP-3567 and FERM BP-3568, respectively. For the purpose of comparison, plasmids hearing wild type genes were also used to transform the E. coli AB3257 strain.\n(§2) Each of these strains were cultured for 24 hours in a known L-phenylalanine-producing medium [Sugimoto, S. et al., J. Biotechnol., 5, 237 (1988)]. From the culture cells, the crude enzyme solution was prepared by ultrasonic homogenization. The enzyme activity of DS was determined in a conventional manner [Gollub, E. et al., Methods Enzymol., 17, 349], in the presence of L-tyrosine in the case of aroF, and in the presence of L-phenylalanine in the case of aroG."}, "[2]": {"molecular_target": "T2, Escherichia coli DS encoded by aroG, variant aroG29, 147 Met → Ile (pTS-aroG29) (Escherichia coli, UniProt P0AB91, M147I)", "T2 construct": "cloning the natural DS gene of Escherichia coli; made in house; host or cells: Escherichia coli AB3257 (strain AJ 12602), crude enzyme solution", "experiment": "DS enzyme activity in the presence of L-phenylalanine (crude enzyme solution)", "conditions": "crude enzyme of AJ 12602 (AB3257/pTS-aroG29); Fig. 3", "excerpt": "as §1, §2"}, "[3]": {"molecular_target": "T3, Escherichia coli DS encoded by aroG, variant aroG8, 202 Ala → Thr (pTS-aroG8) (Escherichia coli, UniProt P0AB91, A202T)", "T3 construct": "cloning the natural DS gene of Escherichia coli; made in house; host or cells: Escherichia coli AB3257 (strain AJ 12600), crude enzyme solution", "experiment": "DS enzyme activity in the presence of L-phenylalanine (crude enzyme solution)", "conditions": "crude enzyme of AJ 12600 (AB3257/pTS-aroG8); Fig. 3", "excerpt": "as §1, §2"}, "[4]": {"molecular_target": "T4, Escherichia coli DS encoded by aroG, variant aroG17, 147 Met → Ile, 332 Glu → Lys (pTS-aroG17) (Escherichia coli, UniProt P0AB91, E332K/M147I)", "T4 construct": "cloning the natural DS gene of Escherichia coli; made in house; host or cells: Escherichia coli AB3257 (strain AJ 12601), crude enzyme solution", "experiment": "DS enzyme activity in the presence of L-phenylalanine (crude enzyme solution)", "conditions": "crude enzyme of AJ 12601 (AB3257/pTS-aroG17); Fig. 3", "excerpt": "as §1, §2"}, "[5]": {"molecular_target": "T5, Escherichia coli DS encoded by aroG, variant aroG40, 157 Met → Ile, 219 Ala → Thr (pTS-aroG40) (Escherichia coli, UniProt P0AB91, A219T/M157I)", "T5 construct": "cloning the natural DS gene of Escherichia coli; made in house; host or cells: Escherichia coli AB3257 (strain AJ 12603), crude enzyme solution", "experiment": "DS enzyme activity in the presence of L-phenylalanine (crude enzyme solution)", "conditions": "crude enzyme of AJ 12603 (AB3257/pTS-aroG40); Fig. 3", "excerpt": "as §1, §2"}, "[6]": {"molecular_target": "T6, Escherichia coli DS encoded by aroG, variant aroG15, 146 Asp → Asn (pTS-aroG15) (Escherichia coli, UniProt P0AB91, D146N)", "T6 construct": "cloning the natural DS gene of Escherichia coli; made in house; host or cells: Escherichia coli AB3257 (strain AJ 12563), crude enzyme solution", "experiment": "DS enzyme activity in the presence of L-phenylalanine (crude enzyme solution)", "conditions": "crude enzyme of AJ 12563 (AB3257/pTS-aroG15); Fig. 3", "excerpt": "as §1, §2"}, "[7]": {"molecular_target": "T7, Escherichia coli DS encoded by aroG, variant aroG4, 150 Pro → Leu (pTS-aroG4, strain AJ 12562) (Escherichia coli, UniProt P0AB91, P150L)", "T7 construct": "cloning the natural DS gene of Escherichia coli; made in house; host or cells: Escherichia coli AB3257 (strain AJ 12562), crude enzyme solution", "experiment": "DS enzyme activity in the presence of L-phenylalanine (crude enzyme solution)", "conditions": "crude enzyme of AJ 12562 (AB3257/pTS-aroG4); Fig. 3", "excerpt": "as §1, §2"}, "[8]": {"molecular_target": "T8, Escherichia coli K-12 chorismate mutase-prephenate dehydratase (CM-PD), variant with 330 serine residue substituted with an aspartic acid (pPHAD) (Escherichia coli, UniProt P0A9J8, S330D)", "T8 construct": "the natural CM-PD gene of Escherichia coli is cloned; made in house; host or cells: Escherichia coli W3110 (tyrA), crude enzyme", "experiment": "PD enzyme activity in the presence of L-phenylalanine (crude enzyme)", "conditions": "crude enzyme of W3110 (tyrA)/(pPHAD); concentration not given", "description": "(§3) Escherichia coli K-12 W3110 (tyrA)/(pPHAB) strain was cultured at 37°C for 15 hours in L medium and the cells were collected by centrifugation. Then, the cells were washed twice with physiological saline, and suspended in 250 mM Tris-hydrochloride buffer (pH 7.5) containing 0.5 mM dithiothreitol under ice cooling. By ultrasonication (20 KHz) for 30 seconds four times, the crude enzyme solution was prepared.\n(§4) The PD enzyme activity was determined in a conventional manner [Cotton, R.G.H. and Gibson, F., Meth. in Enzymol., 17, 564 (1970)]. Using the crude enzyme, the enzymatic reaction was carried out at 37°C for 10 minutes in the presence of 50 mM Tris-hydrochloride buffer (pH 8.2) containing 1 mM barium prephenate and 0.5 mM L-tyrosine. Aqueous sodium hydroxide (1 N) was added to terminate the reaction, and the formed phenylpyruvic acid was measured at an extinction wavelength of 320 nm.\n(§5) Quantitative determination of protein was made using the Protein Assay Kit (manufactured by Bio Rad Co.), according to the protocol of the manufacturer.\n(§6) By using the same method above, the PD enzyme activities of Escherichia coli W3110 (tyrA)/(pPHAD) and Escherichia coli W3110 (tyrA)/(pPHATerm) were determined."}, "[9]": {"molecular_target": "T9, Escherichia coli K-12 chorismate mutase-prephenate dehydratase (CM-PD), variant with amino acid residues downstream from the 330 serine residue deleted (pPHATer (Escherichia coli, UniProt P0A9J8))", "T9 construct": "made in house; host or cells: Escherichia coli W3110 (tyrA), crude enzyme", "experiment": "PD enzyme activity in the presence of L-phenylalanine (crude enzyme)", "conditions": "crude enzyme of W3110 (tyrA)/(pPHATerm); concentration not given", "description": "as §3, §4, §5, §6"}, "[10]": {"molecular_target": "T10, Escherichia coli K-12 chorismate mutase-prephenate dehydratase (CM-PD), variant with 330 serine residue substituted with a proline residue (pPHAB) (Escherichia coli, UniProt P0A9J8, S330P)", "T10 construct": "the natural CM-PD gene of Escherichia coli is cloned; made in house; host or cells: Escherichia coli K-12 W3110 (tyrA), crude enzyme solution", "experiment": "PD enzyme activity in the presence of L-phenylalanine (crude enzyme)", "conditions": "5 mM L-phenylalanine; 1 mM barium prephenate, 0.5 mM L-tyrosine, pH 8.2, 37°C, 10 minutes; Fig. 4", "description": "as §3, §4, §5"}, "[11]": {"molecular_target": "T11, Escherichia coli chorismate mutase-prephenate dehydratase (CM-PD), wild type (Escherichia coli, UniProt P0A9J8)", "T11 construct": "the natural CM-PD gene of Escherichia coli is cloned; made in house", "experiment": "PD enzyme activity in the presence of L-phenylalanine (crude enzyme)", "conditions": "0.5 mM L-phenylalanine; 1 mM barium prephenate, 0.5 mM L-tyrosine, pH 8.2, 37°C, 10 minutes; Fig. 4", "description": "as §3, §4, §5"}, "[12]": {"molecular_target": "T12, Escherichia coli 3-deoxy-D-arabinoheptulonic acid-7-phosphate synthase (DS) encoded by aroF, wild type (pTS-aroF) (Escherichia coli, UniProt P00888)", "T12 construct": "cloning the natural DS gene of Escherichia coli; made in house; host or cells: Escherichia coli AB3257 (aroF, aroG, aroH deleted), crude enzyme solution", "experiment": "DS enzyme activity in the presence of L-tyrosine (crude enzyme solution)", "conditions": "crude enzyme of AB3257/pTS-aroF; concentration not stated in text (Fig. 2)", "excerpt": "as §1, §2"}, "[13]": {"molecular_target": "T13, Escherichia coli DS encoded by aroF, variant aroF15, 147 Asp → Asn (pTS-aroF15) (Escherichia coli, UniProt P00888, D147N)", "T13 construct": "cloning the natural DS gene of Escherichia coli; made in house; host or cells: Escherichia coli AB3257 (strain AJ 12598), crude enzyme solution", "experiment": "DS enzyme activity in the presence of L-tyrosine (crude enzyme solution)", "conditions": "crude enzyme of AJ 12598 (AB3257/pTS-aroF15); concentration not stated in text (Fig. 2)", "excerpt": "as §1, §2"}, "[14]": {"molecular_target": "T14, Escherichia coli DS encoded by aroF, variant aroF33, 181 Ser → Phe (pTS-aroF33) (Escherichia coli, UniProt P00888, S181F)", "T14 construct": "cloning the natural DS gene of Escherichia coli; made in house; host or cells: Escherichia coli AB3257 (strain AJ 12599), crude enzyme solution", "experiment": "DS enzyme activity in the presence of L-tyrosine (crude enzyme solution)", "conditions": "crude enzyme of AJ 12599 (AB3257/pTS-aroF33); concentration not stated in text (Fig. 2)", "excerpt": "as §1, §2"}}, "data": [{"smiles": "N[C@@H](Cc1ccccc1)C(=O)O", "note": "[L-phenylalanine]", "values": [{"measurement": "inhibition by L-phenylalanine of DS enzyme activity", "setting": "[1]", "value": "strongly inhibited"}, {"measurement": "inhibition by L-phenylalanine of DS enzyme activity", "setting": "[2]", "value": "feedback inhibition by L-phenylalanine is released"}, {"measurement": "inhibition by L-phenylalanine of DS enzyme activity", "setting": "[3]", "value": "feedback inhibition by L-phenylalanine is released"}, {"measurement": "inhibition by L-phenylalanine of DS enzyme activity", "setting": "[4]", "value": "feedback inhibition by L-phenylalanine is released"}, {"measurement": "inhibition by L-phenylalanine of DS enzyme activity", "setting": "[5]", "value": "feedback inhibition by L-phenylalanine is released"}, {"measurement": "inhibition by L-phenylalanine of DS enzyme activity", "setting": "[6]", "value": "feedback inhibition by L-phenylalanine is released"}, {"measurement": "DS enzyme activity as a function of L-phenylalanine concentration", "setting": "[7]", "value": "increases as the concentration of L-phenylalanine increases"}, {"measurement": "inhibition by L-phenylalanine of DS enzyme activity", "setting": "[7]", "value": "releases feedback inhibition"}, {"measurement": "feedback inhibition by L-phenylalanine of PD enzyme activity", "setting": "[8]", "value": "released from feedback inhibition"}, {"measurement": "feedback inhibition by L-phenylalanine of PD enzyme activity", "setting": "[9]", "value": "released from feedback inhibition"}, {"measurement": "inhibition by L-phenylalanine of prephenate dehydratase activity", "setting": "[10]", "value": "almost no inhibition"}, {"measurement": "inhibition by L-phenylalanine of prephenate dehydratase activity", "setting": "[11]", "value": "strongly inhibited"}]}, {"smiles": "N[C@@H](Cc1ccc(O)cc1)C(=O)O", "note": "[L-tyrosine]", "values": [{"measurement": "inhibition by L-tyrosine of DS enzyme activity", "setting": "[12]", "value": "strongly inhibited"}, {"measurement": "inhibition by L-tyrosine of DS enzyme activity", "setting": "[13]", "value": "released from feedback inhibition"}, {"measurement": "inhibition by L-tyrosine of DS enzyme activity", "setting": "[14]", "value": "released from feedback inhibition"}]}]}
